Some results are limits rather than exact numbers.

The target of one test is T1, TLR7 (Homo sapiens, UniProt Q9NYK1).
T1 construct: host or cells: HEK293 (HEK-BLUE-hTLR7)
T1 sequence (Q9NYK1 27-1049): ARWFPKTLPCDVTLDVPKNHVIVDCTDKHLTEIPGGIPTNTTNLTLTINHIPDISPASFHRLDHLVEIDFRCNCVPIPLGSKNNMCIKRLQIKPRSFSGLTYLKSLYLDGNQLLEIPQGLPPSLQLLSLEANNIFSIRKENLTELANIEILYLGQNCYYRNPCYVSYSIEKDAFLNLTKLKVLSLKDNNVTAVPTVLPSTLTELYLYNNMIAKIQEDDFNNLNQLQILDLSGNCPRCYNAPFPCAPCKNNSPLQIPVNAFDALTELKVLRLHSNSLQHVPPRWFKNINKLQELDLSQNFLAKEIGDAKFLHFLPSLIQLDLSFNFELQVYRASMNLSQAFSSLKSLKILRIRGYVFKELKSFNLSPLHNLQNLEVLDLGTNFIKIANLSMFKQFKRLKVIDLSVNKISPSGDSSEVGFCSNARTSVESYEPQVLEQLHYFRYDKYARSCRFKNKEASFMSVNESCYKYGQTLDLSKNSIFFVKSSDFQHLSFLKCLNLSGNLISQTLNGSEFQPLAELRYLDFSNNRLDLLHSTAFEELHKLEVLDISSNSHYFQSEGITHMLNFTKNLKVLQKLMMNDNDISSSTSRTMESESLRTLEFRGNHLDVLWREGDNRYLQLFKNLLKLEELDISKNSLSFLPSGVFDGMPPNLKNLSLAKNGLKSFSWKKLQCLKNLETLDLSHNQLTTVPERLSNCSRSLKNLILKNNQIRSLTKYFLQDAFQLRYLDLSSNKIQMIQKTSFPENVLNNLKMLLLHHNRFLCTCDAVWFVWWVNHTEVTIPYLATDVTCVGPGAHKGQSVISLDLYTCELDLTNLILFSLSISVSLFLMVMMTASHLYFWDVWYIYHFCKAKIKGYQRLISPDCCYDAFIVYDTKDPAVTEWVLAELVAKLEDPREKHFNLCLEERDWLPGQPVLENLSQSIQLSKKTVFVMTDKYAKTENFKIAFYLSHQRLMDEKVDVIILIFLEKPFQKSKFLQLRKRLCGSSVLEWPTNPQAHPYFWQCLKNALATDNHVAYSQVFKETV
The test can be described thus: Cell activity assay of TLR7 (HEK-BLUE-hTLR7, SEAP reporter, Quanti-Blue). The format is cell-based. As to conditions: HEK-BLUE-hTLR7 cells, 24 hours. On the procedure:
(§1) In this experiment, TLR7 and TLR8 bioactivity assays of the compound of formula I were determined using a cellular test. This method was performed in human embryonic kidney cells (HEK293) expressing TLR family members such as TLR4, TLR7, TLR8, or TLR9. TLR agonist activates TLR, causing downstream NF-KB activation, thus activating the secreted embryonic alkaline phosphatase (SEAP) reporter gene. Quanti-Blue (InvivoGen) reagent was used to assay the SEAP activity, thus reflecting the activity of TLR7 and TLR8 agonists.
(§2) The detailed experimental method is as follows:
HEK-BLUE-hTLR7 and HEK-BLUE-hTLR8 cell lines were purchased from Invivogen company and cultured in DMEM medium containing 4.5 g/L glucose (Sigma-Aldrich) and 10% fetal bovine serum under a condition of a temperature of 37° C., a humidity of 95%, and 5% CO2. […]
Cell treatment was as follows: The cells were removed from the incubator and centrifuged to remove the culture medium, resuspended in a T-150 flask with 10 mL of pre-warmed PBS. 12 mL of pre-warmed culture medium was added thereto, and the cells were pipetted gently up and down, and counted under a microscope. […]
20 μL/well of supernatant was pipetted into 180 μL of Quanti-Blue preheated to 37° C., and the mixture was incubated at 37° C. for 1.5 hours, and the absorbance (OD value) at 650 nm was measured with a spectrophotometer. […]
As for `CCCN(CCO)C(=O)C1=Cc2ccc(C(=O)Nc3cnc4c(c3)CNCC4)cc2N=C(N)C1` [Compound 13, 2-amino-N^4-(2-hydroxyethyl)-N^4-n-propyl-N^8-(5,6,7,8-tetrahydro-1,6-naphthyridin-3-yl)-3H-benzo[b]azepine-4,8-dicarboxamide], the EC50 – broadly, the concentration at which the effect is half-maximal – was greater than 2000 nM.

The next test deals with T2, TLR8 (Homo sapiens, UniProt Q9NR97).
T2 construct: host or cells: HEK293 (HEK-BLUE-hTLR8)
T2 sequence (Q9NR97 27-1041): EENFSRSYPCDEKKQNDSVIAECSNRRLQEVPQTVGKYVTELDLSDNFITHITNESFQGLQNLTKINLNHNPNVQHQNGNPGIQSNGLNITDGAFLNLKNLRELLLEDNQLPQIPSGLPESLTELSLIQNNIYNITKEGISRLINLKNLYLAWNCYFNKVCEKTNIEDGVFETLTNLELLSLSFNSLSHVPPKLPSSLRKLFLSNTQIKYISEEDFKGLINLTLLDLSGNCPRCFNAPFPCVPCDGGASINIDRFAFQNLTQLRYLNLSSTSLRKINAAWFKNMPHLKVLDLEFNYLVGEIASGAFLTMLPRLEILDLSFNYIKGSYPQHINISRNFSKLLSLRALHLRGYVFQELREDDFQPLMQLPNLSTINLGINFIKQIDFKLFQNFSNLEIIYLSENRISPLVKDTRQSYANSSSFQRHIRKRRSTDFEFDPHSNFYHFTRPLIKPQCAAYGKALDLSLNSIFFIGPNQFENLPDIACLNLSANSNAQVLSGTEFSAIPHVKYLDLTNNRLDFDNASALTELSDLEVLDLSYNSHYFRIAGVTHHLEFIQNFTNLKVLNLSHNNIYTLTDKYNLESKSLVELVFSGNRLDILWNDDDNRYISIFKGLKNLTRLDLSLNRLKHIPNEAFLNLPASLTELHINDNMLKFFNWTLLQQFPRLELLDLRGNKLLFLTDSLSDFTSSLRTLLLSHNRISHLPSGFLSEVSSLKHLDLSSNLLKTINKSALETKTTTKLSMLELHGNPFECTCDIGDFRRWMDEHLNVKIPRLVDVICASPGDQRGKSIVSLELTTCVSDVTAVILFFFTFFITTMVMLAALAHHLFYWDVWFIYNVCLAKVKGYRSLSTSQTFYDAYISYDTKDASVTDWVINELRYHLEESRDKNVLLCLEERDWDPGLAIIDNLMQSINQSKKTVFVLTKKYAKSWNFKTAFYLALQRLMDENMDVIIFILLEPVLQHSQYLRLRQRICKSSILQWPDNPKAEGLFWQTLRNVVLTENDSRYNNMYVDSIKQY
Description: Cell activity assay of TLR8 (HEK-BLUE-hTLR8, SEAP reporter, Quanti-Blue). The class given is cell-based. As to conditions: HEK-BLUE-hTLR8 cells, 24 hours. The protocol: as §1, §2
HEK-BLUE-hTLR7 and HEK-BLUE-hTLR8 cell lines were purchased from Invivogen company and cultured in DMEM medium containing 4.5 g/L glucose (Sigma-Aldrich) and 10% fetal bovine serum under a condition of a temperature of 37° C., a humidity of 95%, and 5% CO2.
The test concentration of the compound ranged from 0.5 nM to 15 μM, with a total of 10 concentration gradients. TLR7 or TLR8 agonists with known activity were added thereto as positive controls, and 1 μL of DMSO as a negative control.
Cell treatment was as follows: The cells were removed from the incubator and centrifuged to remove the culture medium, resuspended in a T-150 flask with 10 mL of pre-warmed PBS. 12 mL of pre-warmed culture medium was added thereto, and the cells were pipetted gently up and down, and counted under a microscope. A single cell suspension of 200,000 cells/mL was prepared immediately with culture medium, and 200 μL/well (40,000 cells/well) of the cell suspension was added to a 96-well plate. The final concentration of DMSO was 0.5%.
The compound was added thereto, and the mixture was incubated in a 5% CO2 incubator at 37° C. for 24 hours.
20 μL/well of supernatant was pipetted into 180 μL of Quanti-Blue preheated to 37° C., and the mixture was incubated at 37° C. for 1.5 hours, and the absorbance (OD value) at 650 nm was measured with a spectrophotometer. The calculation formula for the agonistic effect is as follows: • Effect %=(average OD value of the administration group-average OD value of the DMSO group)/(average OD value of the positive drug group-average OD value of the DMSO group)×100 • The concentration-effect curves were fitted with Graphpad software, and EC50 was calculated. The test results are shown in Table 4 (A represents <100 nM, B represents 100 nM to 250 nM, C represents 250 nM to […], D represents >2 μM, / represents not tested).
The compound `CCCN(CCC)C(=O)C1=Cc2ccc(C(=O)Nc3cnc4c(c3)CNCC4)nc2N=C(N)C1` [Compound 1, 8-amino-N^6,N^6-di-n-propyl-N^2-(5,6,7,8-tetrahydro-1,6-naphthyridin-3-yl)-7H-pyrido[2,3-b]azepine-2,6-dicarboxamide] came in with an EC50 of 250 to 1000 nM.
In turn, `CCCN(CCC)C(=O)C1=Cc2ccc(C3(C(=O)Nc4cnc5c(c4)CNCC5)CC3)cc2N=C(N)C1` [Compound 3, 2-amino-N,N-di-n-propyl-8-(1-((5,6,7,8-tetrahydro-1,6-naphthyridin-3-yl)carbamoyl)cyclopropyl)-3H-benzo[b]azepine-4-carboxamide] came in with an EC50 of 100 to 250 nM.
Take `CCCN(CCC)C(=O)C1=Cc2c(F)cc(C3(C(=O)Nc4cnc5c(c4)CNCC5)CC3)cc2N=C(N)C1` [Compound 5, 2-amino-6-fluoro-N,N-di-n-propyl-8-(1-((5,6,7,8-tetrahydro-1,6-naphthyridin-3-yl)carbamoyl)cyclopropyl)-3H-benzo[b]azepine-4-carboxamide]: the EC50 is less than 100 nM.
Compound `CCCN(CCO)C(=O)C1=Cc2ccc(C3(C(=O)Nc4cncc(CN)c4)CC3)cc2N=C(N)C1` [Compound 12, 2-amino-8-(1-((5-(aminomethyl)pyridin-3-yl)carbamoyl)cyclopropyl)-N-(2-hydroxyethyl)-N-n-propyl-3H-benzo[b]azepine-4-carboxamide] displayed a concentration giving a half-maximal response (EC50) of 100 to 250 nM.
On to `CCCN(CCO)C(=O)C1=Cc2ccc(C(=O)Nc3cnc4c(c3)CNCC4)cc2N=C(N)C1` [Compound 13, 2-amino-N^4-(2-hydroxyethyl)-N^4-n-propyl-N^8-(5,6,7,8-tetrahydro-1,6-naphthyridin-3-yl)-3H-benzo[b]azepine-4,8-dicarboxamide], for which the EC50 was in the range of 250 to 1000 nM.

Source of the values: patent US20240299572A1, “NITROGEN-CONTAINING COMPOUND, CONJUGATE CONTAINING SAID COMPOUND, AND APPLICATION THEREOF” (SHANGHAI DE NOVO PHARMATECH CO., LTD., priority 2021, published 2024).
